Laboratory results taken from patent US20240041870A1, “METHODS OF TREATING SYSTEMIC LUPUS ERYTHEMATOSUS” (AbbVie Inc., priority 2022, published 2024).

How the values were obtained:
[1] = test system: subjects with moderately to severely active SLE; assay: Exposure-response analysis (logistic regression) of upadacitinib steady-state Cavg vs efficacy endpoints; parameters: species or system human
Description: Quartile plots for the relationships between upadacitinib steady-state (SS) Cavg and efficacy responses at Week 24 are shown in FIG. 5A to 5C. Specifically, FIG. 5A is an exposure-response quartile plot for upadacitinib efficacy at week 24 for the efficacy endpoint of SLE Responder Index (SRI-4) and Steroid Dose ≤10 mg prednisone equivalent QD, FIG. 5B is an exposure-response quartile plot for upadacitinib efficacy at week 24 for the efficacy endpoint of BILAG-Based Combined Lupus Assessment (BICLA), and FIG. 5C is an exposure-response quartile plot for upadacitinib efficacy at week 24 for the efficacy endpoint of SLE Responder Index (SRI-4).
The highest upadacitinib steady-state (SS) Cavg quartile (which would be equivalent to 45 mg QD exposures) was consistently associated with the highest observed response across the three endpoints and was the primary driver for upadacitinib exposure-response trends. The exposure-response model-predicted median (90% prediction interval) percentage of subjects achieving SRI-4 and steroid dose ≤10 mg prednisone equivalent QD, BICLA, and SRI-4 at Week 24 is 50% (42% to 58%), 57% (50% to 65%), and 55% (47% to 62%), respectively, for upadacitinib 30 mg UPA QD compared to 38% (31% to 46%), 39% (32% to 46%), and 40% (32% to 47%), respectively, for placebo. A upadacitinib 45 mg QD dose is predicted to provide 6% to 8% greater responses compared to 30 mg QD.
Quartile plots for the relationships between upadacitinib Cavg and efficacy responses at Week 48 are shown in FIGS. 10A-10C (SRI-4 and steroid dose ≤10 mg prednisone equivalent, SRI-4, and BICLA, respectively). Based on logistic regression analysis, there is an exposure-response relationship (p <0.05) for upadacitinib with each of the Week 48 efficacy endpoints (SRI-4 and steroid dose (10 mg prednisone equivalent QD, BICLA, and SRI-4). […]

[2] = test system: anti-dsDNA autoantibodies, complement C3 and C4, IgG, IgM, circulating B cells; assay: Biomarker analysis in Study M19-130; type: in vivo, human
Excerpt: Biospecimens (whole blood, peripheral blood mononuclear cells [PBMCs], plasma, and serum) were collected at specified time points throughout the study to evaluate known and/or novel disease-related or drug-related biomarkers. Types of biomarkers may have included nucleic acids, proteins, lipids, RNA, DNA, and/or metabolites. The objective of this research was to analyze samples for biomarkers that would help to understand SLE, related conditions, and response to treatment with upadacitinib or similar compounds.
Increased circulating memory, naïve, and total B cells were also observed.
The Week 48 predefined biomarker analyses confirmed the trends observed at Week 24.

[3] = Upadacitinib pharmacokinetics in Study M19-130 (model-estimated steady-state exposure); type: in vivo, human; settings: 30 mg QD; subjects with SLE; plasma
Excerpt: Upadacitinib plasma concentrations were summarized at each sampling time point using descriptive statistics. A mixed-effects modeling approach may have been used to estimate the population central value and the empirical Bayesian estimates of the individual values for upadacitinib oral clearance (CL/F) and volume of distribution (Vss/F). Additional parameters and pharmacokinetic (PK)/pharmacodynamic relationships may have been estimated if useful in the interpretation of the data.
The model-estimated median ([…]) steady-state (SS) Cavg in subjects with SLE was 28.4 (19.1-46.6) ng/mL for upadacitinib 30 mg QD.

CC[C@@H]1CN(C(=O)NCC(F)(F)F)C[C@@H]1c1cnc2cnc3[nH]ccc3n12 [Upadacitinib, (3S,4R)-3-ethyl-4-(3H-imidazo[1,2-a]pyrrolo[2,3-e]pyrazin-8-yl)-N-(2,2,2-trifluoroethyl)pyrrolidine-1-carboxamide]
plateau for efficacy at the plasma exposures evaluated ([1]; exposures associated with 30 mg QD, Week 24): not reached
relationship of upadacitinib plasma exposures with SRI-4 and steroid dose ≤10 mg prednisone equivalent, SRI-4, and BICLA at Week 24 ([1]; logistic regression, p<0.05, Week 24): statistically significant relationship
exposure-response relationship with SRI-4 and steroid dose ≤10 mg prednisone equivalent, SRI-4, and BICLA at Week 48 ([1]; logistic regression, p<0.05, Week 48): clear exposure-response relationship
anti-dsDNA autoantibodies ([2]; 30 mg QD, Week 48 analysis): meaningful decreases
complement C3 level ([2]; 30 mg QD, Week 48 analysis): early reduction (a known effect of JAK inhibitors) followed by a progressive normalization
complement C4 level ([2]; 30 mg QD, Week 48 analysis): early reduction (a known effect of JAK inhibitors) followed by a progressive normalization
circulating memory B cells ([2]; 30 mg, Week 24 analysis): Increased
circulating naïve B cells ([2]; 30 mg, Week 24 analysis): Increased
circulating total B cells ([2]; 30 mg, Week 24 analysis): Increased
level of C3 complement compared to Baseline ([2]; 30 mg, Week 24 analysis): significant decrease
level of C4 complement compared to Baseline ([2]; 30 mg, Week 24 analysis): significant decrease
level of IgG ([2]; 30 mg, Week 24 analysis): significant decreases
level of IgM compared to Baseline ([2]; 30 mg, Week 24 analysis): significant decrease
level of anti-dsDNA autoantibodies ([2]; 30 mg, Week 24 analysis): significant decreases
model-estimated median (prediction interval) steady-state (SS) Cavg [3]: 28.4 (19.1-46.6) ng/mL
